Legend:
[1] = Storage stability (60° C., 2 weeks); assay type: physicochemical; conditions: for storage stability after the grinding treatment (in words): 60° C.; for Residual ratio: storage 60° C.
Protocol: A comparison was made on the storage stability (60° C., 2 weeks) of the crystalline bulk powder of MX-68 obtained by the method described in Japanese Laid-Open Patent Publication No. 6-239863(A)) (manufactured by Chugai Pharmaceutical Co., Ltd.), the mortar-ground bulk powder and the centrifugal-ground bulk powder obtained in Example 1.

[2] = Average particle diameter by dry particle size distribution measurement (AEROSIZER mach 2); assay type: physicochemical; conditions: dry particle size distribution measurement after grinding
Excerpt: The average particle diameter of the finely ground powder of MX-68 in the present invention can be measured by using, for example, a dry particle size distribution measurement apparatus (AEROSIZER mach 2, manufactured by AMHERST PROCESS INSTRUMENTS, INC) as will be described in Example 1 hereinafter. The finely ground powder of MX-68 according to the present invention has an average particle diameter of from 5 to 25 μm. When the average particle diameter is less than 5 μm, the finely ground powder is liable to be charged with static electricity and thus there arises a high possibility of dusting and adhesion. When the average particle diameter exceeds 25 μm, on the other hand, it is feared that the solubility and/or content uniformity of MX-68 are adversely affected. It is preferable that the average particle diameter ranges from 8 to 15 μm, still preferably from 9 to 11 μm.
A crystalline bulk powder of MX-68 obtained by the method described in Japanese Laid-Open Patent Publication No. 6-239863(A)) (manufactured by Chugai Pharmaceutical Co., Ltd.) was manually ground in an agate mortar. Separately, the same bulk powder was ground with a centrifugal grinder (ZM-1, manufactured by Nippon Seiki Seisakusho) by using a screen (pore size: 0.2 mm) at 20,000 rpm. Separately, the same bulk powder was ground with a micro-labo jet mill (A-O Jet Mill, manufactured by Seishin Kigyo). The particle diameter of each finely ground powder of MX-68 thus obtained was measured by using a dry particle size distribution measurement apparatus (AEROSIZER mach 2, manufactured by AMHERST PROCESS INSTRUMENTS, INC) and the average particle diameter was determined. As a result, the average particle diameter could be controlled to 9 to 11 μm by each grinding method (Table 1).

[3] = Thermal analysis: differential scanning calorimetry, endotherm; assay type: physicochemical; conditions: DSC; for endotherm compared with the unground bulk powder (in words): before and after the grinding treatment; for Endotherm: temperature rise 5° C./min
Protocol: The finely ground powder of MX-68 sustaining the crystallinity according to the present invention means a finely ground powder of MX-68 which has, both before and after the grinding treatment, parts showing polarization when observed under a polarization microscope, and has an endotherm of from 25 to 50 mJ/mg, preferably from […] at an endothermic peak appearing, for example, at 185 to 195° C. in the differential scanning calorimetry as will be described Example 2.
A crystalline bulk powder of MX-68 obtained by the method described in Japanese Laid-Open Patent Publication No. 6-239863(A)) (manufactured by Chugai Pharmaceutical Co., Ltd.) and the finely ground powders of MX-68 obtained by the grinding methods described in Example 1 were thermally analyzed to thereby determine the differential scanning calories (DSC, temperature rise: 5° C./min). Then the endotherm (caused by the endothermic reaction occurring in association with the conversion of crystalline particles in the crystalline bulk powder into the amorphous state) was calculated.

[4] = Dissolution test, method 2 (paddle method), Japanese Pharmacopoeia; assay type: physicochemical; conditions: compared with the amorphous bulk powder
Excerpt: Tablets of the following formula were produced by using the crystalline bulk powder of MX-68 obtained by the method described in Japanese Laid-Open Patent Publication No. 6-239863(A)) (manufactured by Chugai Pharmaceutical Co., Ltd.), an amorphous bulk powder and the centrifugal.-ground bulk powder obtained in Example 1. More particularly, MX-68, lactose, crystalline cellulose and croscarmellose sodium were dry-mixed. After adding water, the mixture was kneaded and granulated. Then the granulated matter was dried at 50° C., mixed with magnesium stearate, and press molded to give tablets of 6 mm in diameter. In accordance with the method 2 (paddle method) of the dissolution test as specified in Japanese Pharmacopoeia, these tablets were subjected to the dissolution test using 500 ml of JP official solution 1 at 37° C.

[5] = Pharmacokinetics after oral administration to dogs, MX-68 concentration in the blood; assay type: in vivo; conditions: 1 mg/kg

Residual ratio ([1]; listed as Motor-ground bulk powder) [%]	Average particle diameter [2] [μm]	endotherm compared with the unground bulk powder (in words) [3]	Endotherm [3] [mJ/mg]	Residual ratio [1] [%]	solution speed (in words) [4]	bioavailability (in words) ([5]; compared with the amorphous bulk powder)	absorbability (in words) ([5]; compared with the unground bulk powder)	SMILES	storage stability after the grinding treatment (in words) [1]
90.9	9.3	a decrease in the endotherm	22.3	–	–	–	–	Nc1nc(N)c2nc(CN3CCSc4cc(C(=O)N[C@@H](CCCC(=O)O)C(=O)O)ccc43)cnc2n1 [Mortar-ground bulk powder]	a decrease in stability
–	10.7	no change in the endotherm	33.2	–	–	–	–	Nc1nc(N)c2nc(CN3CCSc4cc(C(=O)N[C@@H](CCCC(=O)O)C(=O)O)ccc43)cnc2n1 [Jet mill-ground bulk powder, N-(1-((2,4-diamino-6-pteridinyl)methyl)-3,4-dihydro-2H-1,4-benzothiazine-7-carbonyl)L-α-aminoadipic acid]	–
–	11.4	no change in the endotherm	32.8	96.3	–	–	–	Nc1nc(N)c2nc(CN3CCSc4cc(C(=O)N[C@@H](CCCC(=O)O)C(=O)O)ccc43)cnc2n1 [Centrifugal-ground bulk powder, N-(1-((2,4-diamino-6-pteridinyl)methyl)-3,4-dihydro-2H-1,4-benzothiazine-7-carbonyl)L-α-aminoadipic acid]	sustained stability comparable to the unground bulk powder
–	–	–	33.5	95.3	lower solution speed	lower bioavailability	–	Nc1nc(N)c2nc(CN3CCSc4cc(C(=O)N[C@@H](CCCC(=O)O)C(=O)O)ccc43)cnc2n1 [Unground bulk powder]	–
–	–	–	–	–	–	–	higher absorbability	Nc1nc(N)c2nc(CN3CCSc4cc(C(=O)N[C@@H](CCCC(=O)O)C(=O)O)ccc43)cnc2n1 [amorphous bulk MX-68 powder, N-(1-((2,4-diamino-6-pteridinyl)methyl)-3,4-dihydro-2H-1,4-benzothiazine-7-carbonyl)L-α-aminoadipic acid]	–

— patent US6383520B1, “Fine powder of L-α-aminoadipic acid derivative, oral solid preparations containing the same, and method for treatment of bulk powders” (Chugai Seiyaku Kabushiki Kaisha, priority 1998, dated 2002)
